Laboratory results: US20220096650A1 (Glaxosmithkline Intellectual Property Development Limited, priority 2019, published 2022)

How the values were obtained:
Dendritic cells = experiment: Co-culture of immature dendritic cells with BCMA ADC treated NCI-H929 cells, maturation markers by flow cytometry; assay type: cell-based, human
From the text: The process of immunogenic cell death can induce the production of danger molecules that lead to the activation of dendritic cells (see FIG. 1A-ICD is a special type of apoptosis often associated with the cellular release of ATP and HMGB1, and exposure of CRT at the cellular membrane. ICD induces an immune response through engagement of the antigen presentation process by dendritic cells (DCs)). […] Anti-BCMA-MMAF induced ATP release, HMGB1 release and CRT exposure only in NCI-H929, a BCMA positive MM cell line). To investigate the effect of NCI-H929 cell killing by BCMA ADC on the activation of dendritic cells, co-culture experiments were carried out with BCMA ADC treated NCI-H929 cells and immature dendritic cells (iDCs) differentiated from human monocytes in vitro with GM-CSF/IL-4 treatment. A number of dendritic cell maturation markers as well as IL-10 and IL-12p70, two major cytokines secreted by dendritic cells upon activation, were monitored in this process to assess the effect of BCMA ADC induced cell death on dendritic cell activation. Fresh, whole Human blood was obtained from three healthy donors from the Upper Providence Blood Donation Unit with syringes coated in liquid sodium heparin ([…] 10 IU/mL final concentration). Monocytes were isolated from fresh, whole human blood using the RosetteSep Monocyte Enrichment kit (Cat. #15068) and were assessed for expression of cell surface CD14 (BD Bioscience Cat. #562698) using flow cytometry. […] All cells were counted at the initiation of the co-culture and diluted with X-Vivo-15 media to a concentration of 7.5×10^5 cells/mL. […] Data for the secreted IL-10 and IL-12p70 from supernatants in the co-culture assays w analyzed in MSD Discovery Workbench v4.0.12. […] Marker expression was measured in (a) untreated (no BCMA ADC) Dendritic cells alone and (b-f) Dendritic cells that were co-cultured with (b) untreated (no BCMA ADC), (c) IgG Control (10 μg/mL), (d) 0.1, (e) 1 and (f) 10 μg/mL BCMA ADC treated (48 hours) NCI-H929 cells. […]

CD4+ and CD8+ T cells = experiment: T cell proliferation upon anti-CD3/anti-CD28 stimulation (CFSE); assay type: cell-based, human; details: 96 hours; 3 donors
Experimental: Fresh normal peripheral blood isolated CD4+ or CD8+ T cells were received and counted using a Beckman Coulter ViCell then centrifuged at 330 g for 7 minutes. Cells were then stained with Molecular Probes Cell Trace CFSE (cat #C34554) proliferation dye (5-10 μM) in PBS/0.5% BSA. Cells were incubated for 5 minutes on ice prior to a further incubation for 5 minutes on ice in cold RPMI 1640/10% FBS. Any free dye was removed by two further cell centrifugations at 300 g for 5 minutes. Cells were resuspended in complete media RPMI 1640/10% FBS/IL-2 (2.8 ng/mL). Cells were then seeded (10^5 cells/100 μL volume/well) in a 96 well tissue culture plates pre-coated with anti-CD3 (1 μg/mL) and anti-CD28 (1 μg/mL). […] After the 4 day incubation, cell supernatant was harvested and frozen at minus 80° C. and the cells were collected for flow cytometry staining. Analyzed using a CANTO II flow cytometer with 488 nm excitation and emission filters appropriate for fluorescein (FITC) for Cell Trace CFSE. FIG. 4D) Effect of BCMA ADC on proliferation of CD4+ and CD8+ T cells. CD4+ and CD8+ T cells stimulated with anti-CD3 and anti-CD28 antibodies in the presence or absence of various concentrations of BCMA ADC. After 96 hours cell proliferation was analyzed by flow cytometry. Data represent mean±SD from 3 different donors.

[1] = three healthy donors, 24 hour co-culture, 0.1, 1, 10 μg/mL BCMA ADC

Substance: GSK2857916
- effect of killing of NCI-H929 cells on dendritic cells (Dendritic cells; 24 hour co-culture 1:1 with NCI-H929 cells treated 48 hours): stimulatory effect on dendritic cells
- CD40 cell surface expression on CD11c+ Dendritic cells (Dendritic cells; [1]): increased
- CD83 cell surface expression on HLA-DR+ Dendritic cells (Dendritic cells; [1]): increased
- proliferation of CD4+ and CD8+ T cells (CD4+ and CD8+ T cells): does not appear to have direct effects
